The term ED50 denotes the dose at which the effect has come halfway, by size or by number of responders. A higher ED50 goes with a need for a large dose.

The target of assay [1] is Glutamate receptor ionotropic, NMDA 2C (Rattus norvegicus) (UniProt Q00961). Put plainly: Effective dose required for the action of NMDA receptor activity in maximal electroshock anticonvulsant assay. Type of assay: functional.
The target of assay [2] is Glutamate receptor 4 (Homo sapiens) (UniProt P48058). Put plainly: Effective dose required for the action of AMPA receptor antagonistic activity in maximal electroshock anticonvulsant assay. Type of assay: functional. For orientation: The maximal electroshock test induces tonic seizures with an electrical stimulus.
Glutamate receptor 4 (Homo sapiens), sequence (P48058 whole entry): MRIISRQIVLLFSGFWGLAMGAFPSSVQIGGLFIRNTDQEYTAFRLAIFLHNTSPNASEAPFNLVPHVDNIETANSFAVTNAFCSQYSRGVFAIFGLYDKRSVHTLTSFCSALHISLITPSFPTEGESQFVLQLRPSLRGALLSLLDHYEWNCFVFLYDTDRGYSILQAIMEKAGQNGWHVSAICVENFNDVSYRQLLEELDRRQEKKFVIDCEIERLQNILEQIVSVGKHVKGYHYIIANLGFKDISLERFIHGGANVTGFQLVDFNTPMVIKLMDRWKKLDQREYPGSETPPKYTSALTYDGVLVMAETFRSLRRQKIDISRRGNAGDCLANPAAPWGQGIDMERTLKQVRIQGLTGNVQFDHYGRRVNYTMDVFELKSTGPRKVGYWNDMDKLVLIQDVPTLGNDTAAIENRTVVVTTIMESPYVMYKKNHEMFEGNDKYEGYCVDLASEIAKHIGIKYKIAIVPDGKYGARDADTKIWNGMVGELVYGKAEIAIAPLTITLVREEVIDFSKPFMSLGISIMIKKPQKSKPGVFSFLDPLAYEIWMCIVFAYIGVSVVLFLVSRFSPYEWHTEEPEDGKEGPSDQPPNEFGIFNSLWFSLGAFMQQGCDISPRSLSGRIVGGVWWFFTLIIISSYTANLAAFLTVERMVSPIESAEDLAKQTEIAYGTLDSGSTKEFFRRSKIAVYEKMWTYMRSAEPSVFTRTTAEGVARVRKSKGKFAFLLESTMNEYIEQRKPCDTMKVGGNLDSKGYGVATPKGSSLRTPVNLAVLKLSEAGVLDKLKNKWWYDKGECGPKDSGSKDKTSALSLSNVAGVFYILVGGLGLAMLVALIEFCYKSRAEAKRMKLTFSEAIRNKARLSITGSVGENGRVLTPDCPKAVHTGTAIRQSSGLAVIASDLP

The structures appear in SMILES notation.

Glutamate receptor ionotropic, NMDA 2C (Rattus norvegicus), sequence (Q00961 20-1237 limits assumed): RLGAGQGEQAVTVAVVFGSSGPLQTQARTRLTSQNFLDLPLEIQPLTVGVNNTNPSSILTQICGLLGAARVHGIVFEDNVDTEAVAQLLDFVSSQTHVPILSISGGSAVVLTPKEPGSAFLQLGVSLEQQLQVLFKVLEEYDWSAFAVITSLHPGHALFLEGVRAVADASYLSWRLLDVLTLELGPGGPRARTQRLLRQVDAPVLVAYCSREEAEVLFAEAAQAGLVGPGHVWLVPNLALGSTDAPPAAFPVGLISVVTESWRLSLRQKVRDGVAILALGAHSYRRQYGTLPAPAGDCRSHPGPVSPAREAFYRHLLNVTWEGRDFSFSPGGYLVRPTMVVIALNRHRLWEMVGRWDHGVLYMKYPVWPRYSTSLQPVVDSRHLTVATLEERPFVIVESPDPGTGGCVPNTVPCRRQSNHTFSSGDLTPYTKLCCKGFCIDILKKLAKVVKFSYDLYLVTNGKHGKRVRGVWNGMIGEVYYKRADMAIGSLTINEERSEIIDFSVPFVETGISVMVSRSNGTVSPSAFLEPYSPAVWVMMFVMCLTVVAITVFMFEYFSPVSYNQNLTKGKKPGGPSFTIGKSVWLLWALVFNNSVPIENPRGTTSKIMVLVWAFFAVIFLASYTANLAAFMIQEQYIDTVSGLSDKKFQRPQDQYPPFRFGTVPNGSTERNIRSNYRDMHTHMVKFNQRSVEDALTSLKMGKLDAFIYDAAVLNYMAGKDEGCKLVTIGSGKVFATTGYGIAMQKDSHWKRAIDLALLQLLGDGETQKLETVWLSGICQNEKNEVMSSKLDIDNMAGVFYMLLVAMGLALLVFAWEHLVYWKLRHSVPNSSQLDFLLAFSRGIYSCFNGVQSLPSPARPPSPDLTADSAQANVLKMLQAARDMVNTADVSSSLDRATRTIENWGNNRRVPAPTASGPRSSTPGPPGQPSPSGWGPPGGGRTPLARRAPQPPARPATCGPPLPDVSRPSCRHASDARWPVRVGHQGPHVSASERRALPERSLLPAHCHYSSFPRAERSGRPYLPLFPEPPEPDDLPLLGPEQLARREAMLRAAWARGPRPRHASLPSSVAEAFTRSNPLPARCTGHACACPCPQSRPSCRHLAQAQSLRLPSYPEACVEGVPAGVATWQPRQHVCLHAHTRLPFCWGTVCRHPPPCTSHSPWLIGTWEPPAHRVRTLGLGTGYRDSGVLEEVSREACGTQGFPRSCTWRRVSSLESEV

`NS(=O)(=O)c1cccc2c1c([N+](=O)[O-])cc1nc(O)c(O)nc12` yielded an ED50 in assay [1] of 13.1 mg/kg.
In assay [2], `CN1CCc2c([N+](=O)[O-])cc3nc(O)c(O)nc3c2C1` came in with an ED50 of 0.44 mg/kg.

The values are drawn from ChEMBL document CHEMBL1130496, “Synthesis of N-desmethyl PNQX: elaboration into an immunogenic conjugate and a radioiodinated ligand; radioimmunoassay for the AMPA/NMDA antagonist, PNQX” (Bioorg Med Chem Lett, 1997).
